In publication PMC6429262, “Design and Synthesis of Novel Anti-Proliferative Emodin Derivatives and Studies on their Cell Cycle Arrest, Apoptosis Pathway and Migration” (Molecules, 2019):

Columns and labels:
L02 cells = assay: Cytotoxic activity against human normal liver cells (L02); assay type: cell-based; conditions: Homo sapiens, L02, human normal liver L02 cells
MCF-7 cells = assay: CellTiter-Glo Luminescent Cell Viability Assay, MCF-7; assay type: cell-based, human
Procedure: (§1) The in vitro anti-proliferative activities of all the novel synthesized compounds were evaluated against HepG2 cells and MCF-7 cells by CellTiter-Glo® Luminescent Cell Viability Assay, using paclitaxel (a clinically used drug) as a positive control. Emodin (1) and compound 2 were also included for comparison.
(§2) HepG2 cells and MCF-7 cells were purchased from American Type Culture Collection (ATCC, Manassas, VA, USA). Cells were cultured in T75 flask (430641, Corning, New York, NY, USA), supplemented with high-glucose DMEM medium (Dulbecco’s modified Eagle’s medium, 11965-092, Gibco, New York, NY, USA) containing 10% Fetal bovine serum (FBS) and 1% penicillin (100 units/mL)-streptomycin (100 µg/mL) in a humidified incubator at 37 °C under 5% CO2 and 95% relative humidity (RH) atmosphere. The cells were harvested for metabolomics experiments using cell scrapers.
(§3) HepG2 cells and MCF-7 cells in 40 µL DMEM supplemented with 10% FBS were seeded at a density of 500 cells/well in 384-well cell culture plate (3570, Corning), respectively. After 24 h, the medium was substituted with fresh medium containing various sample solutions in DMSO (0.5%, v/v) at a dose range of 0.14–100 µM with 3-fold serial dilutions, and cells were cultured for another 48 h. Cells were cultured in medium without samples but 0.5% DMSO served as a control. All measurements were determined in triplicate for each treatment. After the sample treatment for 48 h, 20 µL CellTiter-Glo (G7573, Promega, Fitchburg, WI, USA) was added to each well containing cells and the contents were mixed for 2 min on an orbital shaker to induce cell lysis. The plates were then incubated at room temperature for 20 min to stabilize the luminescent signal. The luminescence was recorded on an Envision 2014 (Perkin Elmer, Waltham, MA, UAS). The IC50 values represented the samples’ concentrations required to inhibit 50% of cell proliferation and were calculated from a calibration curve by linear regression using GraphPad Prism 7.0 software (GraphPad Software, San Diego, CA, USA).

HepG2 cells = assay: CellTiter-Glo Luminescent Cell Viability Assay, HepG2; assay type: cell-based, human
Procedure: as §1, §2, §3

IC50 (MCF-7 cells; Homo sapiens, MCF7, 48 h, MCF-7 cells, 48 h, mean of three independent experiments): 52.7 ± 2.22 µM
IC50 (HepG2 cells; Homo sapiens, HepG2, 48 h, HepG2 cells, 48 h, mean of three independent experiments): 43.9 ± 1.28 µM
SMILES: Cc1cc(O)c2c(c1)C(=O)c1cc(O)cc(O)c1C2=O [Emodin, 3-methyl-1,6,8-trihydroxyanthraquinone]
IC50 (L02 cells): 22.52 ± 0.18 µM
Selectivity Index MCF-7 (MCF-7 cells; IC50 on normal cells (L02)/IC50 on cancer cells (MCF-7)): 0.43
Selectivity Index HepG2 (HepG2 cells; IC50 on normal cells (L02)/IC50 on cancer cells (HepG2)): 0.51
